This is an account of results in patent US9645154B2, “Method for detecting cancer cell” (ARKRAY, Inc., priority 2010, dated 2017).

Assay in all cases: Aminolevulinic acid (with FeCl2 and ascorbic acid) labeling, fluorescence microscopy image analysis (positive rate)
What all share (type): cell-based

In assay [1] the test system is human colon adenocarcinoma cells (SW620). As to conditions: hemolyzed, 0.3 mM, 60 min, 37° C., threshold value 207. The text has this:
(§1) The number of the cells was counted using a hemacytometer in accordance with the conventional method, and then 10^5 to 10^6 cells per sample (cell suspension) was aliquoted. The sample was centrifuged to remove the supernatant. Subsequently, aminolevulinic acid 5-AMINOLEVULINATE HYDROCHLORIDE (trade name, Cosmo Bio Co., Ltd., at the final concentration given in Table 7 or 8) dissolved in Dulbecco's PBS (+) and FeCl2 and ascorbic acid having the same concentration as that of aminolevulinic acid, respectively, were added thereto, and the cells were suspended well. The number of the cells was adjusted, and then the cells were added dropwise to a 384-well plate. The plate was centrifuged to spin down the cells. The image was captured with a fluorescence microscope (Nikon Corp.).
(§2) The wavelengths for the fluorescence filter set: EX (excitation wavelength): 402±7.5, DM: 430 or longer, BA (fluorescence wavelength): 625±15.
(§3) The acquired images were analyzed using an image analysis software NIS-ELEMENTS (trade name, Nikon Corp.) to evaluate the fluorescence intensity of the cell.
(§4) In a manner similar to Example 4, each of human breast adenocarcinoma cells (Cell line name: MCF-7; DS Pharma Biomedical Co., Ltd.), human colon adenocarcinoma cells (Cell line name: SW620; DS Pharma Biomedical Co., Ltd.), human prostate cancer cells (Cell line name: PC3; DS Pharma Biomedical Co., Ltd.), human alveolar epithelial cancer cells (Cell line name: NCI-H358; DS Pharma Biomedical Co., Ltd.), human gastric cancer cells (Cell line name: SNU-1; ATCC) and human fibrosarcoma cells (Cell line name: HT1080; DS Pharma Biomedical Co., Ltd.) was detected with aminolevulinic acid.

Assay [2] relates to human fibrosarcoma cells (HT1080). The note with it: hemolyzed, 0.3 mM, 60 min, 37° C., threshold value 203.
Source text: as §1, §2, §3, §4

In assay [3] the test system is human breast adenocarcinoma cells (MCF-7). The note with it: hemolyzed, 0.3 mM, 60 min, 37° C., threshold value 268.
Source text: as §1, §2, §3, §4

Turning to `NCC(=O)CCC(=O)O` [aminolevulinic acid, 5-amino-4-oxopentanoic acid], the “Positive rate (Cancer cells)” value in assay [1] came out at 97.0%; in assay [2] it was 94.6%; in assay [3], 86.7%.
